From BindingDB's records for doi:10.1021/jm020951i (Uppsala University, 2003) come the findings set out here.

Holding throughout (experiment): Enzyme Inhibition Measurements
The target of one experiment is Plasmepsin II (Plasmodium falciparum (isolate HB3), UniProt P46925). The settings on record: pH 4.5; 22 °C. Here is the method:
(§1) Enzyme activities were assayed by monitoring the hydrolysis of substrate in the presence or absence of inhibitor compounds. The hydrolysis was recorded as the increase in fluorescence intensity over a 10 min time period. IC50 values were obtained by assuming competitive inhibition and fitting the dose response data to the equation (Vi/V0) =1/ (1 + [I]/IC50)). The Ki was calculated by using Ki = IC50/ (1 + [S]/Km), and a Km value determined according to Michaelis-Menten.

The next experiment deals with Plasmepsin I (Plasmodium falciparum, UniProt P39898). The settings on record: pH 4.5; 22 °C. Here is the method:
as §1

A further experiment has as its target Cathepsin D (Homo sapiens, UniProt P07339). The protocol: as §1

Sequence of Plasmepsin I (P39898 whole entry): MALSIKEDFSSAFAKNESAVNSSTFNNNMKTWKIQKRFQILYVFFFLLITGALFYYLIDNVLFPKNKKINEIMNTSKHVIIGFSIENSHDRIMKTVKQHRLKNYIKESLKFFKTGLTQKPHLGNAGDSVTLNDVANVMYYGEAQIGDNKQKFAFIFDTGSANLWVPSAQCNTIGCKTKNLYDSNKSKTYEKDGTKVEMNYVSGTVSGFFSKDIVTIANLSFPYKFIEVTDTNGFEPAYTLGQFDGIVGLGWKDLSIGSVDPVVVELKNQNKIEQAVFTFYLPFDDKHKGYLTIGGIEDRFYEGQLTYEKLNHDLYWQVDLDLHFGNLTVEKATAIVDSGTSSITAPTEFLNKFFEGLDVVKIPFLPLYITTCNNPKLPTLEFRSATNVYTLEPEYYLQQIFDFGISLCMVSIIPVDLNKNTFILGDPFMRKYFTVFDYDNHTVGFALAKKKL
Sequence of Plasmepsin II (P46925 whole entry): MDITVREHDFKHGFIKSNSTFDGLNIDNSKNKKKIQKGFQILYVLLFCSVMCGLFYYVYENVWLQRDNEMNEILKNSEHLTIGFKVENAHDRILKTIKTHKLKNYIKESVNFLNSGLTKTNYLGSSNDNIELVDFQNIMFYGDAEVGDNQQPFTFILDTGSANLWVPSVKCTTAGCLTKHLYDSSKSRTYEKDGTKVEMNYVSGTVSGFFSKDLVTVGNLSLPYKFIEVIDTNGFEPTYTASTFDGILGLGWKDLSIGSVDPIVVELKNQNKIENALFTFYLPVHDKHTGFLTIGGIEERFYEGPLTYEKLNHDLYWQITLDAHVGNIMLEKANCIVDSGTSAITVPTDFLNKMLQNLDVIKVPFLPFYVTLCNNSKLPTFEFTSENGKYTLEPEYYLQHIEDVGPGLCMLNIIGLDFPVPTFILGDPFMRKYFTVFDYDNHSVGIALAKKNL
Sequence of Cathepsin D (P07339 65-162 limits assumed): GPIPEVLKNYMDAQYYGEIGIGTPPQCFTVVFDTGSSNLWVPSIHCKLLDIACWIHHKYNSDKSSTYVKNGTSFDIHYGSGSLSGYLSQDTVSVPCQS
Sequence of Cathepsin D (P07339 169-412 limits assumed): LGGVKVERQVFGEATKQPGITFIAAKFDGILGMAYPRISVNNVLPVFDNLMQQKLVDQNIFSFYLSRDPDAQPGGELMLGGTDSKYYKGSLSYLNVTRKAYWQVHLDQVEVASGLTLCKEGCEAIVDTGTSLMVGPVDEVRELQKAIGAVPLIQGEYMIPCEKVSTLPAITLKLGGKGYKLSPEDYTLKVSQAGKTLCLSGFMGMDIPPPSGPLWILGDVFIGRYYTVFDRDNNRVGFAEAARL

`CC(C)C[C@H](NC[C@H](O)[C@H](Cc1ccccc1)NC(=O)[C@@H](NC(=O)c1ccccn1)C(C)C)C(N)=O` [(2S)-2-{[(2S,3S)-2-hydroxy-3-[(2S)-3-methyl-2-(pyridin-2-ylformamido)butanamido]-4-phenylbutyl]amino}-4-methylpentanamide]: the results for the Ki at Plasmepsin II and at Plasmepsin I were 3300 nM and 2900 nM, respectively.

Take `Cc1ccc(-c2ccc(C[C@H](NC[C@H](O)[C@H](Cc3ccccc3)NC(=O)[C@@H](NC(=O)c3ccccn3)C(C)C)C(N)=O)cc2)cc1` [(2S)-N-[(2S,3S)-4-{[(1S)-1-carbamoyl-2-[4-(4-methylphenyl)phenyl]ethyl]amino}-3-hydroxy-1-phenylbutan-2-yl]-3-methyl-2-(pyridin-2-ylformamido)butanamide]: the Ki (in general, a measure of affinity in units of concentration, obtained from inhibition or displacement) on Cathepsin D was determined as 1700 nM.

For the compound `CC(C)[C@H](NC(=O)c1ccccn1)C(=O)N[C@@H](Cc1ccccc1)[C@@H](O)CN[C@H](Cc1ccccc1)C(N)=O` [(2R,5S,6R)-3-Aza-2-benzyl-5-hydroxy-7-phenyl-6-[(picolyl-L-valinyl)amino]heptanoyl Amide], the Ki was 3500 nM on Plasmepsin II and 8000 nM on Plasmepsin I.

For the compound `CC(C)[C@H](NC(=O)c1ccccn1)C(=O)N[C@@H](Cc1ccccc1)[C@@H](O)CN[C@@H](Cc1ccccc1)C(N)=O` [(2S,5S,6R)-3-Aza-2-benzyl-5-hydroxy-7-phenyl-6-[(picolyl-L-valinyl)amino]heptanoyl Amide], the Ki at Plasmepsin II worked out at 3200 nM; on Plasmepsin I, 2100 nM.

For `CC(C)[C@H](NC(=O)c1ccccn1)C(=O)N[C@@H](Cc1ccccc1)[C@@H](O)CN[C@@H](Cc1ccc(-c2cccc(N)c2)cc1)C(N)=O` [(2S,5S,6R)-3-Aza-2-[p-(m-aminophenyl)benzyl]-5-hydroxy-7-phenyl-6-[(picolyl-L-valinyl)amino]heptanoyl Amide], the Ki at Cathepsin D worked out at 1000 nM.

On Cathepsin D, `COc1ccccc1-c1ccc(C[C@H](NC[C@H](O)[C@H](Cc2ccccc2)NC(=O)[C@@H](NC(=O)c2ccccn2)C(C)C)C(N)=O)cc1` [(2S,5S,6R)-3-Aza-5-hydroxy-2-[p-(o-methoxyphenyl)-benzyl]-7-phenyl-6-[(picolyl-L-valinyl)amino]heptanoyl Amide] returned a Ki of 1700 nM.
